Several values for one entry are separate records, joined by “and”; a condition that tells them apart may be missing. Equal entries are not always repeated. Activity calls are given as the source filed them.
Columns and labels:
[1] = biological target: Platelet-activating factor acetylhydrolase (Mus musculus, UniProt Q60963); experiment: Late stage assay provider results from the probe development effort to identify inhibitors of plasma platelet activating factor acetylhydrolase (pPAFAH): fluorescence-based dose response biochemical gel-based competitive Activity-Based Protein Profiling (ABPP) assay for HTS compounds. [Related pubchem assays (depositor defined):AID463082, AID463092, AID463230, AID588474]; assay type: cell-free
Chain of Platelet-activating factor acetylhydrolase (Q60963 whole entry): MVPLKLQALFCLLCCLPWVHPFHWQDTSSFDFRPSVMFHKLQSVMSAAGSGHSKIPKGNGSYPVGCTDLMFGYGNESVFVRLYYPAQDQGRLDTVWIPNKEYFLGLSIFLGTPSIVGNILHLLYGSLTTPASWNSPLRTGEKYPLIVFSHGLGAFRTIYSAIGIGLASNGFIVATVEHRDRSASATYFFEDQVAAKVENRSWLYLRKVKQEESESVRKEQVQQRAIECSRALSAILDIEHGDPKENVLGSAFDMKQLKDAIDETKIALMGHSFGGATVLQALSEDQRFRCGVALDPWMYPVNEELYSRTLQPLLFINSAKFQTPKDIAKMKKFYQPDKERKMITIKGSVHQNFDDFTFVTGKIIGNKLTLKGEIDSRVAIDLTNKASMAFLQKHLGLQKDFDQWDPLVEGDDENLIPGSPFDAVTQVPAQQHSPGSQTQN

[2] = biological target: Eukaryotic elongation factor 2 kinase (Homo sapiens, UniProt O00418); assay type: functional
Chain of Eukaryotic elongation factor 2 kinase (O00418 whole entry, canonical isoform): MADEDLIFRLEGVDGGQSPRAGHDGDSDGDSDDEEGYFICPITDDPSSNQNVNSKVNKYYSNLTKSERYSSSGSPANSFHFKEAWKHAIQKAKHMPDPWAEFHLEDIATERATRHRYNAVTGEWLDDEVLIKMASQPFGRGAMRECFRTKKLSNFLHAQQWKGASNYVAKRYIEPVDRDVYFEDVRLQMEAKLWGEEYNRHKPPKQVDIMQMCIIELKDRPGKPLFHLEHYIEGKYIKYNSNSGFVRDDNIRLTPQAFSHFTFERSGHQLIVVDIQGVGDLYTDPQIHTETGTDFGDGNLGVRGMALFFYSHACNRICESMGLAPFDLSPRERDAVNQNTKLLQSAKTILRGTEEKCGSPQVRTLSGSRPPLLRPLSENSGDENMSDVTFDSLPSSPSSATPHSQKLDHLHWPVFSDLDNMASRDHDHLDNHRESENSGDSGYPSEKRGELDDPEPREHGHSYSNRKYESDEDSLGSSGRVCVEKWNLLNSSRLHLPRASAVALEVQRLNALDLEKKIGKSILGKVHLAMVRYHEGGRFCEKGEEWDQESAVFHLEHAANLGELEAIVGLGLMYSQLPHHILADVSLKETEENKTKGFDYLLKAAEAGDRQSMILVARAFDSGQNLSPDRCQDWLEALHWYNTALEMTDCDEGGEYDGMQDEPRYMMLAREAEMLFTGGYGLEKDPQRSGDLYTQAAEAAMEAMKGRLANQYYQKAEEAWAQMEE

[3] = biological target: Casein kinase I isoform delta (Homo sapiens, UniProt P48730); assay type: functional;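 note: measured as one member (CSNK1D) of a kinome panel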
Chain of Casein kinase I isoform delta (P48730 whole entry, canonical isoform): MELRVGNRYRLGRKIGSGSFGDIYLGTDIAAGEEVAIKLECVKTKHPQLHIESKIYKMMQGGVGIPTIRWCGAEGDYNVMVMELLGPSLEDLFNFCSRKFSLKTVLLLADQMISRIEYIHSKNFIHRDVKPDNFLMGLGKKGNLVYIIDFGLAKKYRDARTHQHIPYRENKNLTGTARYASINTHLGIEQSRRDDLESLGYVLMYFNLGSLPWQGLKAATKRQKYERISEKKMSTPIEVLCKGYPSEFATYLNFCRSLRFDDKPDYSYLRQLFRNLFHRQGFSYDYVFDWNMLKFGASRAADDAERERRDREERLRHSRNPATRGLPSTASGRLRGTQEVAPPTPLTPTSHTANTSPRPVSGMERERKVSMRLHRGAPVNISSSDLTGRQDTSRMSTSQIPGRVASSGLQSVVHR

[4] = biological target: RNA-editing ligase 1, mitochondrial (Trypanosoma brucei brucei, UniProt P86926); experiment: TbREL1 ligase inhibitors, dose response, biochemical, fluorescence, Trypanosoma brucei (AID 1117295); assay type: functional
Chain of RNA-editing ligase 1, mitochondrial (P86926 whole entry, the tested form may be a part): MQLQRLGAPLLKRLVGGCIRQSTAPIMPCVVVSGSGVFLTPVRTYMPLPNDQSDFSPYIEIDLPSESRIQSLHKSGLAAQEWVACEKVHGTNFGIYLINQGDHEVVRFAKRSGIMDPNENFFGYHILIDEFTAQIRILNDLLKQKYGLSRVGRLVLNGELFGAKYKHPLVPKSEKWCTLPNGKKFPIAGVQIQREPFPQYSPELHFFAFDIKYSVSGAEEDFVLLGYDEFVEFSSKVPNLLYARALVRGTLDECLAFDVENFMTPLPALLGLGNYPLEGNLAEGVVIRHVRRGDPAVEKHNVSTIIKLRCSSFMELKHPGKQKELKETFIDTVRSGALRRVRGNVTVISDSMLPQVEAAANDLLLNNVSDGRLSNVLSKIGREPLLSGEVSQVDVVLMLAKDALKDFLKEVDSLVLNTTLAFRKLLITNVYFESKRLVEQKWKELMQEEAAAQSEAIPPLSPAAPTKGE

Hexokinase HKDC1 [5] = biological target: T1, Hexokinase HKDC1 (Homo sapiens, UniProt Q2TB90); experiment: SAR analysis of small molecule inhibitors of hexokinase domain containing I (HKDC1). [Related pubchem assays (depositor defined):AID493160, AID493190]; assay type: functional
T1 sequence (Q2TB90 whole entry): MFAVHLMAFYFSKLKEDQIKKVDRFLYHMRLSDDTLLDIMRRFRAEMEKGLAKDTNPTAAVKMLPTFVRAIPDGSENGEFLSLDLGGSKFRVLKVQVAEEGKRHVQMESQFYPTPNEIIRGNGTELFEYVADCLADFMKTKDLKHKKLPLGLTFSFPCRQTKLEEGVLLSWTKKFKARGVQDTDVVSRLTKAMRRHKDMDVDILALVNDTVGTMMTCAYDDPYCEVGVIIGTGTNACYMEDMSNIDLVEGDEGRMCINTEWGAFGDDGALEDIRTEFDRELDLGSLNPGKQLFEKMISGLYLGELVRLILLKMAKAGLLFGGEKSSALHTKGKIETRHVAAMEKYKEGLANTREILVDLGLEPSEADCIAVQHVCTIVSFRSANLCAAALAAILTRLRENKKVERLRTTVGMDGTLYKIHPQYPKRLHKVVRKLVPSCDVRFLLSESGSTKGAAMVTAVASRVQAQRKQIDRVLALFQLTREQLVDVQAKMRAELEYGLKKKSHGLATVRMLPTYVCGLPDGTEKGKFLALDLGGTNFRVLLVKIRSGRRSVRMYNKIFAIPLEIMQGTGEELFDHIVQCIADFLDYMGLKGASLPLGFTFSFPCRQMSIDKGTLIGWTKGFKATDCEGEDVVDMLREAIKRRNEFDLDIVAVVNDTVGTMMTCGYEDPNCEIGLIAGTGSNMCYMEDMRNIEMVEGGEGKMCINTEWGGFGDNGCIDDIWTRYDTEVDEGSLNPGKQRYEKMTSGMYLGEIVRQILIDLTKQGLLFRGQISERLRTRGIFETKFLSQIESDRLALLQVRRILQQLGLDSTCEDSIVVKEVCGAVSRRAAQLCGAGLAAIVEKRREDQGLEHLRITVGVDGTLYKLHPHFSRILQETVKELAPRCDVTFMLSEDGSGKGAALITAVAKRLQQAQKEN

Hexokinase HKDC1 [6] = biological target: T1, Hexokinase HKDC1; experiment: HKDC1 hexokinase inhibitors, SAR follow-up, biochemical, set 2 (AID 588355); assay type: functional
Hexokinase-1 [7] = biological target: T2, Hexokinase-1 (Homo sapiens, UniProt P19367); experiment: HK1 enzyme inhibition by HKDC1 hits, SAR follow-up, selectivity assay for HKDC1 inhibitor project, biochemical, set 2, resazurin fluorescence coupled readout (AID 588356); assay type: functional
T2 sequence (P19367 whole entry): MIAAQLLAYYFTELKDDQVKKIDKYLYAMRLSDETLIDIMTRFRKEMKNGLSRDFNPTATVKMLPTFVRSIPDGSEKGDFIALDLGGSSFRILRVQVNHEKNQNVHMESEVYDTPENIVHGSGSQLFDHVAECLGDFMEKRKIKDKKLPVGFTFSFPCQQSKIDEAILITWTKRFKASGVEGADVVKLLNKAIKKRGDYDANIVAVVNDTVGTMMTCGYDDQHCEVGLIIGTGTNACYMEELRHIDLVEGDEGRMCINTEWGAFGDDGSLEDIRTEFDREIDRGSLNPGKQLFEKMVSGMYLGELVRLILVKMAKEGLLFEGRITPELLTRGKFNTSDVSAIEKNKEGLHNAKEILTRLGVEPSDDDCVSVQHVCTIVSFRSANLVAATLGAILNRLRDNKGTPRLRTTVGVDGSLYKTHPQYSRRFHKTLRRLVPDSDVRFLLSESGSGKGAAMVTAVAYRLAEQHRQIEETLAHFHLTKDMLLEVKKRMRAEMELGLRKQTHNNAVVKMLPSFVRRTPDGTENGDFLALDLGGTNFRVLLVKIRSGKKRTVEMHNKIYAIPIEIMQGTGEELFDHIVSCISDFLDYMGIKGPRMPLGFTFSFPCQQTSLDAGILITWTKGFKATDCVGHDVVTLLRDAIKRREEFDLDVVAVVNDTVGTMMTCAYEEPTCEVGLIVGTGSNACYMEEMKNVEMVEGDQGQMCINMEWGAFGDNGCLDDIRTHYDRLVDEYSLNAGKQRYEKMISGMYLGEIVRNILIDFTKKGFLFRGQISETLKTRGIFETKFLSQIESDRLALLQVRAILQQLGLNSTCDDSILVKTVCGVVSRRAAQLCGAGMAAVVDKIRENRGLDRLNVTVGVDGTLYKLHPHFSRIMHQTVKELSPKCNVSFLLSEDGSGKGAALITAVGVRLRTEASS

Hexokinase HKDC1 [8] = biological target: T1, Hexokinase HKDC1; experiment: SAR analysis of small molecule inhibitors of hexokinase domain containing I (HKDC1) - Set 3. [Related pubchem assays (depositor defined):AID493160, AID493190]; assay type: functional
Cytochrome P450 1A2 = biological target: T3, Cytochrome P450 1A2 (Homo sapiens, UniProt P05177);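 note: PubChem cytochrome P450 panel assay, CYP1A2 panel member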
T3 sequence (P05177 whole entry): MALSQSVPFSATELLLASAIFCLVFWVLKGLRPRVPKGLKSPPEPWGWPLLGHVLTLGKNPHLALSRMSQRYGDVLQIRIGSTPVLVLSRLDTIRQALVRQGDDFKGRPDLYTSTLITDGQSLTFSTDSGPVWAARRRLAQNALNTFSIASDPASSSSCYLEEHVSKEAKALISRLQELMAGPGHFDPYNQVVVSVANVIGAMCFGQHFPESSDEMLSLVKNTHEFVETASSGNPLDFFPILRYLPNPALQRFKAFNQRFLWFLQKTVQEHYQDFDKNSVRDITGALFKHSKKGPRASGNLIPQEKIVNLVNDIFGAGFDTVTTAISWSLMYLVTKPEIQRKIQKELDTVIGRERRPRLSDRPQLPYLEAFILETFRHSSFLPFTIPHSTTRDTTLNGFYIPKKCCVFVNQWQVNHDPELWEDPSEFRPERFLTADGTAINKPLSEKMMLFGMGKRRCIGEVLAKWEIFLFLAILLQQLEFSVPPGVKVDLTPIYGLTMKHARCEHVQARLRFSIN

Hexokinase HKDC1 [9] = biological target: T1, Hexokinase HKDC1; experiment: HKDC1 hexokinase inhibitors, dose response, biochemical, W721R variant (AID 504729); assay type: functional
[10] = biological target: Eukaryotic translation initiation factor 4E (Mus musculus, UniProt P63073); experiment: eIF4E–eIF4G protein interaction inhibitors, dose response, biochemical, TR-FRET (AID 855); assay type: functional;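 note: potency for disrupting eIF4E binding to eIF4GI seen as loss of FRET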
Hexokinase-1 [11] = biological target: T2, Hexokinase-1; experiment: SAR analysis of small molecule inhibitors of hexokinase domain containing I (HKDC1) in the hexokinase 1 selectivity assay. [Related pubchem assays (depositor defined):AID493160, AID493190]; assay type: functional
Cytochrome P450 2C9 = Cytochrome P450 2C9 (Homo sapiens, UniProt P11712)
Chain of Cytochrome P450 2C9 (P11712 whole entry): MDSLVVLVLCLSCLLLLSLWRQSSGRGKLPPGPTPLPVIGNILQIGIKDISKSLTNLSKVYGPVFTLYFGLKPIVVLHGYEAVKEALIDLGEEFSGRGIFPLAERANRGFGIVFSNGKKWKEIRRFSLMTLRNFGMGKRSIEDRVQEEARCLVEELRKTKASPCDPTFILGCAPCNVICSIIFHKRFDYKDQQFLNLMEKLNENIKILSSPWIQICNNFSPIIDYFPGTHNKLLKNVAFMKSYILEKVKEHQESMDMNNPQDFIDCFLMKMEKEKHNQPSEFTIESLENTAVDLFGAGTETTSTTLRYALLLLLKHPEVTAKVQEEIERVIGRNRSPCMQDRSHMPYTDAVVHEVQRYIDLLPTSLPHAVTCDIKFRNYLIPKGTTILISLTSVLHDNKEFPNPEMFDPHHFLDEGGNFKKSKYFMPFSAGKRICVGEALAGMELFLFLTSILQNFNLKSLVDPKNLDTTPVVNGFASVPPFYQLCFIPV

[12] = biological target: Serine/threonine-protein kinase pim-1 (Homo sapiens, UniProt P11309); assay type: functional
[13] = biological target: Mitogen-activated protein kinase kinase kinase kinase 4 (Homo sapiens, UniProt O95819); assay type: functional
Chain of Mitogen-activated protein kinase kinase kinase kinase 4 (O95819 whole entry): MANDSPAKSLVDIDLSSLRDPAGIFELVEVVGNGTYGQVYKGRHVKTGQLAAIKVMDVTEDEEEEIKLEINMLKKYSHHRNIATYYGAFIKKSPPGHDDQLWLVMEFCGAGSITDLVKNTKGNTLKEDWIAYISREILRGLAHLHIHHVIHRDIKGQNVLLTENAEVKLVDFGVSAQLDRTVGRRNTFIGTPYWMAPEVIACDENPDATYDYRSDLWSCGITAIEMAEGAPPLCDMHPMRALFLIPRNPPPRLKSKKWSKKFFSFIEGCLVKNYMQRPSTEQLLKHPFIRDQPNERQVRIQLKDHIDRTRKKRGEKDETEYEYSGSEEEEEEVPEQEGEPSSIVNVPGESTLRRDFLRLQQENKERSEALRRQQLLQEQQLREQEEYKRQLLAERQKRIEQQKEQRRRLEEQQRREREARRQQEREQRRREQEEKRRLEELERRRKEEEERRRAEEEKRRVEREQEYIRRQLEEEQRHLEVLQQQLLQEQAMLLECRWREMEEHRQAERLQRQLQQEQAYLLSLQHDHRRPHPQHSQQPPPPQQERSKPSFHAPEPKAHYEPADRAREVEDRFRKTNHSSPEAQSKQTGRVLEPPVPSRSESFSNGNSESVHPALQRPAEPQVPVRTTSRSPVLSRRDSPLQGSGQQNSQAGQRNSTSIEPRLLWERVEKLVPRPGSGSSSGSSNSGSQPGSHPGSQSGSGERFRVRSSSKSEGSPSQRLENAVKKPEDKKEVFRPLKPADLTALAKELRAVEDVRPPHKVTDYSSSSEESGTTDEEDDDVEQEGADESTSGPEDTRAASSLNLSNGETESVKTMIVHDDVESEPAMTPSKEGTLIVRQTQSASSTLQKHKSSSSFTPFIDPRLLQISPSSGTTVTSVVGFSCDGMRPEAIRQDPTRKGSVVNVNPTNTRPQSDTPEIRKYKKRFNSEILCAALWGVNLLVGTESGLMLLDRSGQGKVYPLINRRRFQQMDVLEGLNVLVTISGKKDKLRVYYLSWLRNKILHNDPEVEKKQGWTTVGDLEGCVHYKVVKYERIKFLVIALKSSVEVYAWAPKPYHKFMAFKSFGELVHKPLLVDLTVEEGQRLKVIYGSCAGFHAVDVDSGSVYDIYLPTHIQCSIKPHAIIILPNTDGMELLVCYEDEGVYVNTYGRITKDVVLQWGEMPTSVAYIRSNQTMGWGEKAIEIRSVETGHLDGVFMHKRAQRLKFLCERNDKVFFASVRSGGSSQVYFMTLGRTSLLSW

[14] = biological target: DNA dC->dU-editing enzyme APOBEC-3A (Homo sapiens, UniProt P31941); experiment: SAR analysis of small molecule inhibitors of APOBEC3A DNA Deaminase via a fluorescence-based single-stranded DNA deaminase assay.; assay type: functional; details: read-out: IC50_Mean
Chain of DNA dC->dU-editing enzyme APOBEC-3A (P31941 whole entry): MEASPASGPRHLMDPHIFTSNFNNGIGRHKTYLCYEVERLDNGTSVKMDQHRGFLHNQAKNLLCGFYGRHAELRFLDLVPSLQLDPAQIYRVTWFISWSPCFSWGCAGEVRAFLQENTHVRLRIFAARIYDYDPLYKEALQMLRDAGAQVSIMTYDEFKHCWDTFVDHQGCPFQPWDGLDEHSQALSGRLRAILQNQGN

[15] = biological target: DNA dC->dU-editing enzyme APOBEC-3G (Homo sapiens, UniProt Q9HC16); experiment: APOBEC3G deaminase inhibitors, SAR follow-up, biochemical, fluorescence, single-stranded DNA substrate (AID 602136); assay type: functional; details: read-out: IC50_Mean
Chain of DNA dC->dU-editing enzyme APOBEC-3G (Q9HC16 whole entry): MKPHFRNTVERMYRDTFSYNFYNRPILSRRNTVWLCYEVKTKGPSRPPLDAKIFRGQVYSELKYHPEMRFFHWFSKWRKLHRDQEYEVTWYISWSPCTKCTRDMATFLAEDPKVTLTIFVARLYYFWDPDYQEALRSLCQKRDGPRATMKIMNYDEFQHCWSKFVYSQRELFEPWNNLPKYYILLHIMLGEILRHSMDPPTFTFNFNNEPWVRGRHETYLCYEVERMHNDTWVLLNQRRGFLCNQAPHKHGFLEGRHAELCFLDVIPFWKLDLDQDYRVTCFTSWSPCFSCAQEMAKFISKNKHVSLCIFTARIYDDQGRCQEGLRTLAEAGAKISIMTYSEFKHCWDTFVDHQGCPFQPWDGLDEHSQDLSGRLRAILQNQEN

[16] = biological target: T4, Orexin/Hypocretin receptor type 1 (Homo sapiens, UniProt O43613); experiment: Fluorescence-based cell-based high throughput dose response assay for antagonists of the orexin 1 receptor (OX1R; HCRTR1). [Related pubchem assays (depositor defined):AID434989, AID435008, AID463079, AID485270, AID492963, AID492964, AID492965, AID493232, AID504717, AID504718]; assay type: functional
T4 sequence (O43613 whole entry): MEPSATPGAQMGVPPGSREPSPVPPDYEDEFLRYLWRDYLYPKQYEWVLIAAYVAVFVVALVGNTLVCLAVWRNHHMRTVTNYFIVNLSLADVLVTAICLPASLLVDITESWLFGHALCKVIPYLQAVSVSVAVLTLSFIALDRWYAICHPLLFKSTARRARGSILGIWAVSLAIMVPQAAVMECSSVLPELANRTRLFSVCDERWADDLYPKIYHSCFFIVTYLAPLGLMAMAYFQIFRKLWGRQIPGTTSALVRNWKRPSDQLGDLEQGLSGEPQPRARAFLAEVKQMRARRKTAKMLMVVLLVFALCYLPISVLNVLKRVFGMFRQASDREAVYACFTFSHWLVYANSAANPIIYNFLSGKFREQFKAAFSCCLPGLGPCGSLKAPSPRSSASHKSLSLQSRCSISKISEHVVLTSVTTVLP

Orexin receptor type 2 [17] = biological target: T5, Orexin receptor type 2 (Homo sapiens, UniProt O43614); experiment: Counterscreen assay for antagonists of the orexin 1 receptor (OX1R; HCRTR1): Homogeneous Time Resolved Fluorescence (HTRF)-based cell-based dose response assay for antagonists of the orexin 2 receptor (OX2R; HCRTR2), run by assay provider.; assay type: functional
T5 sequence (O43614 whole entry): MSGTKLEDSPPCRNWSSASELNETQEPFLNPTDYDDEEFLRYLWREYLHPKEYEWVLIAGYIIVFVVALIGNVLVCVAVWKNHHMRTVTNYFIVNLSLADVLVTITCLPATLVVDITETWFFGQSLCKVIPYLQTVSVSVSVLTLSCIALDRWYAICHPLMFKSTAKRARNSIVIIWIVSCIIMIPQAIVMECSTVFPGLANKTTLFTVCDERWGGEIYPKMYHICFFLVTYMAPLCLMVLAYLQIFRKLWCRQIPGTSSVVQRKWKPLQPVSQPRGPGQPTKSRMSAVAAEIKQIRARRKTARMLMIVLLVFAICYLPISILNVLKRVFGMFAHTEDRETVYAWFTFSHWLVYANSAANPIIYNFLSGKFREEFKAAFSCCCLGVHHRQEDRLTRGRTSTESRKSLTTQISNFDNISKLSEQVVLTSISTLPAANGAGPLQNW

Orexin receptor type 2 [18] = biological target: T5, Orexin receptor type 2; experiment: Counterscreen assay for antagonists of the orexin 1 receptor (OX1R; HCRTR1): Fluorescence-based cell-based dose response assay for antagonists of the orexin 2 receptor (OX2R; HCRTR2), run by assay provider.; assay type: functional
[19] = biological target: T4, Orexin/Hypocretin receptor type 1; experiment: Homogeneous Time Resolved Fluorescence (HTRF)-based cell-based high throughput dose response assay for antagonists of the orexin 1 receptor (OX1R; HCRTR1). [Related pubchem assays (depositor defined):AID434989, AID435008, AID463079, AID485270, AID492963, AID492964, AID492965, AID493232, AID504717, AID504718]; assay type: functional
[20] = Counterscreen for antagonists of the orexin 1 receptor (OX1R; HCRTR1): Fluorescence-based cell-based high throughput dose response assay to identify antagonists of the parental CHO cell line. [Related pubchem assays (depositor defined):AID434989, AID435008, AID463079, AID485270, AID492963, AID492964, AID492965, AID493232, AID504699, AID504701]; assay type: functional
CHO-K1 = experiment: Counterscreen for antagonists of the orexin 1 receptor (OX1R; HCRTR1): Homogeneous time resolved fluorescence (HTRF)-based cell-based dose response assay to identify antagonists of the parental CHO-K1 cell line. [Related pubchem assays (depositor defined):AID434989, AID435008, AID463079, AID485270, AID492963, AID492964, AID492965, AID493232, AID504699, AID504701]; assay type: functional; details: Cricetulus griseus;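 note: potency for inhibition of ATP-stimulated IP1 production as antagonists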
[21] = biological target: Cystic fibrosis transmembrane conductance regulator/Golgi-associated PDZ and coiled-coil motif-containing protein (Homo sapiens, UniProt P13569+Q9HD26); experiment: CAL PDZ domain peptide-binding inhibitors, dose response, biochemical, fluorescence polarization, Cer-tagged CAL PDZ, dry powder (AID 602253); assay type: functional
[22] = CAL PDZ domain peptide-binding inhibitors, dose response, biochemical, fluorescence polarization, untagged CAL PDZ, dry powder (AID 602255); assay type: functional

O=C(Oc1ccc(-c2ccccc2)cc1)N1CCOCC1
IC50 [1]: 0.469 µM (active)

CNC1CC2OC(C)(C1OC)n1c3ccccc3c3c4c(c5c6ccccc6n2c5c31)C(=O)NC4 (stereo not given)
Ki [2]: > 1 µM (inactive) | Ki [3]: > 2.51 µM (inactive)

COc1cc2c(cc1OC)-c1cc(NCc3ccccn3)nc(=O)n1CC2
IC50 [4]: 14.7 µM (inactive) | IC50 (Hexokinase HKDC1 [5]): 12.4 µM (active) | IC50 (Hexokinase HKDC1 [6]): > 80 µM (inactive) and 11.7 µM (active) | IC50 (Hexokinase-1 [7]): > 80 µM (inactive) | IC50 (Hexokinase HKDC1 [8]): > 80 µM (inactive) and 12.1 µM (active) | AC50 (Cytochrome P450 1A2): 35.5 µM (inconclusive) | IC50 (Hexokinase HKDC1 [9]): 8.47 µM (active) | IC50 [10]: 9.21 µM (active) | IC50 (Hexokinase-1 [11]): > 80 µM (inactive) | AC50 (Cytochrome P450 2C9): 7.94 µM (inconclusive)

Clc1ccc(OCC2CN(Cc3c[nH]c4ncccc34)CCO2)cc1 (stereo not given)
Ki [12]: 2 µM (active) | Ki [13]: 1.26 µM (active)

Cc1nnc(NC(=O)C2(c3ccc(F)cc3)CCC2)s1
IC50 [14]: > 99 µM (inactive) | IC50 [15]: > 99 µM (inactive)

Cc1cccc(OCCSc2nc3ccccc3n2CCC(=O)O)c1
IC50 [16]: 19.6 µM (inactive) | IC50 (Orexin receptor type 2 [17]): > 50 µM (inactive) | IC50 (Orexin receptor type 2 [18]): 88.2 µM (inactive) | IC50 [19]: 1.57 µM (active) | IC50 [20]: > 49.8 µM (inactive) | IC50 (CHO-K1): > 66.2 µM (inactive)

CCc1ccc(S(=O)(=O)/N=C2\C=C(SC3=NCN=N3)C(=O)c3ccccc32)cc1
AC50 [21]: 41.5 µM (active) | AC50 [22]: 44.5 µM (active)

Source: ChEMBL document CHEMBL1201862, “PubChem BioAssay data set” (2004)
